Experimental data reported in US4575560A, “Insecticidal diaminoguanidine hydrazone compounds” (American Cyanamid Company, priority 1985, dated 1986).
Converted amounts (≈) assume the structure as drawn. Counter-ions that a name gives are not always drawn.

Key:
Southern Armyworm = assay: Southern armyworm test, third-instar larvae on treated Sieva lima bean leaves; assay type: in vivo, Spodoptera eridania (Cramer); settings: for Mortality Rating Southern Armyworm: third-instar larvae
How it was run: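 Sieva lima bean plants, primary leaves expanded to 1.91 cm, were dipped with agitation for three seconds in test material dissolved in 65% acetone, with further dilutions in acetone, then air-dried in a hood. A treated leaf was placed in a 9 cm petri dish on moist filter paper with 10 third-instar Spodoptera eridania larvae about 1 cm long. Dishes were covered and kept at 80° F. and 50% r.h. Mortality and feeding were assessed after two days.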

[1] = test system: Tobacco Budworm 1st Instar; assay: Tobacco budworm initial test, treated eggs / newly hatched (1st instar) larvae on treated cotton leaves; assay type: in vivo, Heliothis virescens (Fabricus)
Description: Test formulations and procedures used for evaluation are as follows:
A. 100 mg of the test material is weighed, placed in a funnel over a 113 g narrow-mouth bottle, rinsed into the bottle with a 35 mL scoop of acetone, followed by a 35 mL scoop of water and another 35 mL scoop of acetone to yield 1000 ppm in 65% acetone. If the material is not soluble, it is broken up with a glass rod and used as a suspension.
B. This stock solution ("A") is used to make 300 ppm solutions or suspensions by pipetting 30 mL of "A" into a bottle containing 70 mL of 50% acetone to yield 300 ppm. Further dilutions in 50% acetone are made as required.
C. Tests requiring 10 ppm acetone solutions: 1 mL of "A" is pipetted into 99 mL of acetone to yield 10 ppm. Additional dilutions are made using 50% acetone as required.
Tobacco Budworm--Heliothis virescens (Fabricus)
A cotton plant with two true leaves expanded is dipped for three seconds with agitation in 300 ppm solution. A 1.27 to 1.91 cm square of cheesecloth with about 50 to 100 budworm eggs 0-24 hours old is also dipped in the test solution and placed on a leaf of the cotton plant, all being placed in the hood to dry. The leaf with the treated budworm eggs is removed from the plant and placed in a 226 g Dixie cup with a wet 5 cm piece of dental wick and covered with a lid. The other leaf is placed in a similar cup with a wick and a piece of cheesecloth infested with 50-100 newly hatched larvae is added before covering the cup with a lid. After three days at 80° F., 50% relative humidity, observations of egg hatch are made, as well as kill of newly hatched larvae, any inhibition of feeding, or interference of any sort with normal development.

[2] = test system: Tobacco Budworm 3rd Instar; assay: Tobacco budworm secondary test, third-instar larvae on treated cotton cotyledons; assay type: in vivo, Heliothis virescens (Fabricus)
Description: Three cotton plants with just expanded cotyledons are dipped in 1000 ppm solution and placed in the hood to dry. When dry, each cotyledon is cut in half, and 10 are each placed in a 28 g plastic medicine cup containing a 1.25 cm dental wick saturated with water, and one third-instar budworm larva is added. The cup is capped and held for three days at 80° F., 50% relative humidity, after which mortality counts are made.

| Structure (SMILES) | Mortality Rating Southern Armyworm (Southern Armyworm; 100 ppm) | Mortality Rating Southern Armyworm (Southern Armyworm; 1000 ppm) | Mortality Rating Tobacco Budworm 1st Instar ([1]; 300 ppm) | Mortality Rating Tobacco Budworm 3rd Instar ([2]; 1000 ppm) | Mortality Rating Southern Armyworm (Southern Armyworm; 10 ppm) | LC50 (Southern Armyworm; Spodoptera eridania, read-out: LC50 Southern Armyworm) [µg/mL] | Mortality Rating Tobacco Budworm 1st Instar ([1]; 100 ppm) | Mortality Rating Tobacco Budworm 1st Instar ([1]; 10 ppm) | reduced feeding (R) Tobacco Budworm 1st Instar ([1]; 100 ppm) | Mortality Rating Tobacco Budworm 3rd Instar ([2]; 100 ppm) | reduced feeding (R) Tobacco Budworm 3rd Instar ([2]; 100 ppm) | reduced feeding (R) Southern Armyworm (Southern Armyworm; 100 ppm) |
| --- | --- | --- | --- | --- | --- | --- | --- | --- | --- | --- | --- | --- |
| CCNC(=O)N(N=Cc1ccc(C(F)(F)F)cc1)C(=N)NN=Cc1ccc(C(F)(F)F)cc1 [CF3 / CF3 / C2 H5 / H] | 0 (No effect) | 9 (100%) | 0 (No effect) | 0 (No effect) | – | – | – | – | – | – | – | – |
| CNC(=O)N(N=Cc1ccc(C(F)(F)F)cc1)C(=N)NN=Cc1ccc(C(F)(F)F)cc1 [CF3 / CF3 / CH3 / H] | 9 (100%) | 9 (100%) | 8 (86-99%) | 6 (66-75%) | 1 (11-25%) | 5 (≈ 10.9 µM) | 0 (No effect) | – | – | – | – | – |
| N=C(NN=Cc1ccc(C(F)(F)F)cc1)N(N=Cc1ccc(C(F)(F)F)cc1)C(=O)OCc1ccccc1 [CF3 / CF3 / drawing 59] | 0 (No effect) | 9 (100%) | 0 (No effect) | 0 (No effect) | – | – | – | – | – | – | – | – |
| N=C(NN=Cc1ccc(C(F)(F)F)cc1)NN=Cc1ccc(C(F)(F)F)cc1 [CF3 / HCl] | 9 (100%) | 9 (100%) | 9 (100%) | 5 (56-65%) | 0 (No effect) | – | 0 (No effect) | 0 (No effect) | R | 0 (No effect) | R | – |
| N=C(NN=Cc1ccc(Cl)cc1)NN=Cc1ccc(Cl)cc1 [Cl / Base] | 0 (No effect) | 9 (100%) | 5 (56-65%) | 0 (No effect) | 0 (No effect) | – | – | – | – | – | – | – |
| N=C(NN=Cc1ccc(Cl)cc1)NN=Cc1ccc(Br)cc1 [Cl / Br / HCl] | 2 (26-35%) | 9 (100%) | 0 (No effect) | 0 (No effect) | – | – | – | – | – | – | – | R |
| CN(C)C(=O)N(N=Cc1ccc(Cl)cc1)C(=N)NN=Cc1ccc(Cl)cc1 [Cl / Cl / CH3 / CH3] | 0 (No effect) | 9 (100%) | 0 (No effect) | 0 (No effect) | – | – | – | – | – | 0 (No effect) | – | – |
| N=C(NN=Cc1ccc(F)cc1)NN=Cc1ccc(F)cc1 [F / B] | 2 (26-35%) | 9 (100%) | 0 (No effect) | 3 (36-45%) | – | – | 0 (No effect) | – | – | – | – | – |
| N=C(NN=Cc1ccc(OC(F)(F)C(F)F)cc1)NN=Cc1ccc(OC(F)(F)C(F)F)cc1 [HCF2 CF2 O / B, 1,3-bis{[p-(tetrafluoroethoxy)benzylidene]-amino}guanidine] | 9 (100%) | 9 (100%) | 9 (100%) | 9 (100%) | 0 (No effect) | – | 0 (No effect) | – | R | 0 (No effect) | – | – |
| N=C(NN=Cc1ccc(OC(F)F)cc1)NN=Cc1ccc(OC(F)F)cc1 [HCF2 O / B] | 6 (66-75%) | 9 (100%) | 0 (No effect) | 0 (No effect) | 0 (No effect) | – | – | – | – | – | – | – |
